Measurements taken from patent US7985072B2, “Method and apparatus for tooth rejuvenation and hard tissue modification” (Rejuvedent LLC, priority 2005, dated 2011).

Key:
[1] = Depth of the etched (porous) enamel layer with aqueous citric acid solution, parameters of equation (1)
Source text: The inventors conducted a series of tests to determine the optimal pH, temperature and time for tooth rejuvenation, and for designing various devices for the tooth rejuvenation procedure. […] The enamel surface is not homogeneous, it contains inorganic components, such as hydroxyapatite, in the form of crystals oriented towards its surface. The enamel surface also contains organic components, such as proteins. When the organic and inorganic components are exposed to an aqueous acid solution, such exposure leads to the deconstruction and removal of these components to a certain depth into the enamel, forming a superficial porous layer. Stains, bacteria and the weak components of the enamel are removed from the porous layer, bleached or destroyed by the acid. Exposure time, pH and the concentration and temperature of the solution all affect the depth of tissue treatment and structure of surface after treatment. The removal and bleaching of the organic component is important because this component contains the most pigment. The organic component is however, tightly bound to the inorganic component, which occurs during tooth formation and is not affected by factors such as frequency of tooth brushing, or the type of toothpaste used. Because of this, bleaching removes both the organic and the bonded inorganic components.
The ability of an aqueous acidic solution to deconstruct and dissolve both organic and inorganic components depends on the period of time, pH, concentration, and temperature at which the process occurs. The color of the enamel after stain removal and bleaching is determined by how closely the structure after etching matches the natural structure and how well light is scattered from the surface of the tooth. Remineralization is however, a slow process, so caution in carrying out the procedure is recommended, and it is desirable to protect the new surface with a hard material. To achieve this, the present invention proposes the use of a high concentration of acid to minimize the time of treatment. For a high concentration of acid to be used safely within the oral cavity, two fundamental safety concerns need to be addressed: firstly toxicity and secondly soft tissue damage. To completely eliminate the toxicity problem, especially for home use, we propose the use of an edible acid which is non-toxic when ingested. The volume of acid for any application in the present invention is limited to several cubic centimeters. After dissolution in saliva the concentration of the acid ingested will drop, and the pH will increase, which is typical for foodstuffs. A typical pH for food acids is 2.5 or more. We have studied the effect of a low pH (<2.5) edible acid on intact enamel.
The temperature of the acid is another parameter to be optimized for enamel etching when using a high concentration of acid. An increase in temperature increases the depth of etching due to two factors: first, it increases the diffusion coefficient and, second, the rate of the chemical reaction between the acid and the enamel due to Arrenius law. […] These graphs can be described by the following formula: […]
Here, hw is the depth of the porous layer of enamel in μm after t min of etching as a function of t. Parameters cc, ct, and D can be the functions of both temperature T and pH.
The parameters α, cc, and D were found using the best square fit.

[2] = Example 3: thermal treatment of etched enamel impregnated by sapphire particles (CO2 laser), in vitro; design: species or system human; details: pH=1.5, approximately +50° C., approximately 10 minutes
Description: The authors produced a durable, white colored coating on the enamel surface in an in-vitro experiment as described below. The experiment was conducted on freshly extracted teeth from subjects in the 25-40 age group. The teeth were extracted for periodontal reasons. All specimens had healthy, intact enamel. Prior to the experiment, the specimen were stored for no longer than two weeks in a physiological solution, in a dark place at a temperature of approximately +4° C.
One half of the crown of the tooth was coated with varnish. […] The tooth was exposed to the acid for a period of approximately 10 minutes, which was sufficient for the formation of a porous layer of enamel, approximately 50 μm in thickness on unprotected side of the specimen. […]
Thermocycling test was performed after described treatment The tooth was placed into two alternate water baths, one at +25° C. and the other at +90° C., for a period of 2 seconds into each bath, for a total immersion of 100 cycles. The hardness of the treated and untreated sides was assessed, before and after thermocycling, using a dental probe. The strength of the adhesion of the newly formed layer with sapphire particles to the underlying enamel was also assessed using the tip of the dental probe in an attempt to dislodge the newly formed layer at the border.

[3] = tested on: premolar teeth of a subject; test: Example 1: in-office tooth whitening treatment

SMILES: O=C(O)CC(O)(CC(=O)O)C(=O)O [citric acid]
- etched depth of the tooth enamel ([1]; 50° C., pH=1.5, from the presented graphs (exposure time 10 min)): 40 μm
- D, parameter of equation (1), thickness of porous (etched) layer of enamel ([1]; T = 50° C., pH 1): 94.035 μm^2/min
- α1, parameter of equation (1), thickness of porous (etched) layer of enamel ([1]; T = 50° C., pH 1): 1.069 μm/min
- α, parameter of equation (1), thickness of porous (etched) layer of enamel ([1]; T = 50° C., pH 1): 3.195 μm/min
- D, parameter of equation (1), thickness of porous (etched) layer of enamel ([1]; T = 50° C., pH 2): 4.646 μm^2/min
- α1, parameter of equation (1), thickness of porous (etched) layer of enamel ([1]; T = 50° C., pH 2): 0.559 μm/min
- α, parameter of equation (1), thickness of porous (etched) layer of enamel ([1]; T = 50° C., pH 2): 1.022 μm/min
- α1, parameter of equation (1), thickness of porous (etched) layer of enamel ([1]; T = 50° C., pH 2.5): −0.018 μm/min
- α, parameter of equation (1), thickness of porous (etched) layer of enamel ([1]; T = 50° C., pH 2.5): 0.211 μm/min
- D, parameter of equation (1), thickness of porous (etched) layer of enamel ([1]; pH = 1.5, 20 °C): 2.604 μm^2/min
- α1, parameter of equation (1), thickness of porous (etched) layer of enamel ([1]; pH = 1.5, 20 °C): 0.158 μm/min
- α, parameter of equation (1), thickness of porous (etched) layer of enamel ([1]; pH = 1.5, 20 °C): 0.524 μm/min
- D, parameter of equation (1), thickness of porous (etched) layer of enamel ([1]; pH = 1.5, 37 °C): 23.124 μm^2/min
- α1, parameter of equation (1), thickness of porous (etched) layer of enamel ([1]; pH = 1.5, 37 °C): 0.515 μm/min
- α, parameter of equation (1), thickness of porous (etched) layer of enamel ([1]; pH = 1.5, 37 °C): 1.751 μm/min
- D, parameter of equation (1), thickness of porous (etched) layer of enamel ([1]; pH = 1.5, 40 °C): 36.801 μm^2/min
- α1, parameter of equation (1), thickness of porous (etched) layer of enamel ([1]; pH = 1.5, 40 °C): 0.469 μm/min
- α, parameter of equation (1), thickness of porous (etched) layer of enamel ([1]; pH = 1.5, 40 °C): 1.921 μm/min
- D, parameter of equation (1), thickness of porous (etched) layer of enamel ([1]; pH = 1.5, 45 °C): 74.738 μm^2/min
- α1, parameter of equation (1), thickness of porous (etched) layer of enamel ([1]; pH = 1.5, 45 °C): 0.833 μm/min
- α, parameter of equation (1), thickness of porous (etched) layer of enamel ([1]; pH = 1.5, 45 °C): 2.767 μm/min
- D, parameter of equation (1), thickness of porous (etched) layer of enamel ([1]; pH = 1.5, 50 °C): 121.664 μm^2/min
- α1, parameter of equation (1), thickness of porous (etched) layer of enamel ([1]; pH = 1.5, 50 °C): 1.31 μm/min
- α, parameter of equation (1), thickness of porous (etched) layer of enamel ([1]; pH = 1.5, 50 °C): 3.755 μm/min
- D, parameter of equation (1), thickness of porous (etched) layer of enamel ([1]; pH = 1.5, 60 °C): 122.528 μm^2/min
- α1, parameter of equation (1), thickness of porous (etched) layer of enamel ([1]; pH = 1.5, 60 °C): 1.504 μm/min
- α, parameter of equation (1), thickness of porous (etched) layer of enamel ([1]; pH = 1.5, 60 °C): 4.124 μm/min
- thickness of porous layer of enamel formed [2]: approximately 50 μm
- change in gingival tissue and hypersensitivity ([3]; after treatment or during follow up appointments): No change in gingival tissue and no hypersensitivity
- gloss of treatment side versus control side ([3]; immediately after treatment): less glossy than the control side
- pain or discomfort throughout the treatment ([3]; pH=1.5, average +50° C., 10 minutes): did not report any pain or discomfort
